From ChEMBL document CHEMBL3425506, “Synthesis, antimycobacterial evaluation and pharmacophore modeling of analogues of the natural product formononetin” (2015)

System: Mycobacterium tuberculosis
Test: Antimycobacterial activity against Mycobacterium tuberculosis H37Rv ATCC 27294 assessed as inhibition of microbial growth at 10 uM after 5 to 8 days by MABA method
Assay type: functional
Settings: read-out: GI

Compound	inhibition of growth at 10 µM [%]
COc1ccc(-c2c[nH]nc2-c2ccc(O)cc2O)cc1	40
COc1ccc(/C=C/C(=O)c2ccc(O)cc2O)cc1	58
COc1ccc(-c2coc3ccc(F)cc3c2=O)cc1	0
COc1ccc(-c2coc3cc(F)ccc3c2=O)cc1	0
COc1ccc(-c2coc3ccc(Cl)cc3c2=O)cc1	0
COc1ccc(-c2coc3ccc(OC)cc3c2=O)cc1	0
COc1ccc(-c2coc3ccc(Br)cc3c2=O)cc1	5
COc1ccc(-c2coc3ccc(C)cc3c2=O)cc1	7
COc1ccc(-c2coc3ccc(O)cc3c2=O)cc1	28
N#Cc1ccc(-c2coc3cc(O)ccc3c2=O)cc1	16
CC(C)(C)c1ccc(-c2coc3cc(O)ccc3c2=O)cc1	95
COc1ccc(-c2coc3cc(O)ccc3c2=O)cn1	0
COc1ccc(-c2coc3cc(O)ccc3c2=O)cc1F	13
COc1ccc(-c2coc3cc(F)ccc3c2=O)cn1	2
COc1ccc(-c2coc3cc(O)ccc3c2=S)cc1	4
COc1ccc(-c2cnoc2-c2ccc(O)cc2O)cc1	15
COc1ccc(-c2coc3ccccc3c2=O)cc1	0
O=c1c(-c2ccc(Cl)cc2)coc2cc(O)ccc12	54
COc1ccc(-c2coc3cc(O)ccc3c2=O)cc1OC [CLADRIN]	14
COc1ccc(-c2coc3cc(O)ccc3c2=O)cc1 [FORMONONETIN]	88
O=c1c(-c2ccccc2)coc2ccccc12 [ISOFLAVONE]	0
